In publication PMC3366674, “Epigenetic Tailoring for the Production of Anti-Infective Cytosporones from the Marine Fungus Leucostoma persoonii” (Marine Drugs, 2012):
pIC50: −log10 of the molar value. Values after ≈ are worked out from the molar mass of the structure shown. Like-named read-outs stand apart in the source and are kept apart here.

Legend:
[1] = tested on: methicillin-resistant Staphylococcus aureus (MRSA) USA100; experiment: Microtiter MIC determination against MRSA USA100; assay type: cell-based; conditions: for MIC: Staphylococcus aureus; for activity against MRSA: pure compound
Protocol: (§1) The strain of MRSA used in our bioassays is a hospital-associated clone from the CDC USA 100 lineage. […] It is thus deemed an extensively drug resistant strain, and something of a worst-case scenario MRSA isolate.
(§2) The minimum inhibitory concentration (MIC) of the pure compounds was determined as follows. Broth cultures were prepared for S. aureus strains as described above. These were diluted 1:1000 in fresh Trypticase Soy Broth (TSB) and 200 µL was applied to the wells of a sterile 96-well plate. Compounds (in DMSO) were added to wells at concentrations ranging from 1, 10, 25, 50 to 100 µg/mL in a volume no greater than 5 µL. Concentrations were adjusted to lower levels if applicable. Samples were mixed by pipetting and the plates were incubated at 37 °C overnight. MICs were determined by visual inspection for the minimum concentration of compound producing no bacterial growth, as determined by a lack of turbidity. Assays were repeated three times in order to verify the MIC determinations. […] Minimum bactericidal concentration (MBC) counts were performed on the MIC cultures by removing the growth media from each well the following morning, serially diluting, and plating onto Trypticase Soy Agar (TSA). These were incubated overnight at 37 °C and the bacterial loads of each well were determined by enumeration. Percentage killing was determined by the comparison of drug-containing wells to control wells where no compound was added.

[2] = tested on: methicillin-resistant Staphylococcus aureus (MRSA) USA100; experiment: Minimum bactericidal concentration (MBC) counts on MIC cultures; assay type: cell-based; conditions: for fold reduction in bacterial viability at MIC: MRSA USA100, at MIC; for MBC: Staphylococcus aureus, MRSA USA100, read-out: MRSA MBC90
Protocol: as §1, §2

[3] = tested on: MRSA biofilm; experiment: Minimum biofilm eradication count (MBEC) biofilm assay; assay type: cell-based, Staphylococcus aureus; conditions: MRSA USA100 biofilm; for MRSA MBEC90: 24 h exposure
Protocol: as §1
We performed minimum biofilm eradication count (MBEC) assays on cytosporones to assess their activity towards this form of bacterial growth. These were performed by generating S. aureus biofilms in a 96-well microtitre plate, as previously described. Once established, biofilm cultures were exposed to fresh growth media containing a range of concentrations of 15, 20, 25 and 50 µg/mL of the cytosporones. Control analyses were performed in parallel containing no compound. Cultures were incubated, covered, for 24 h at 37 °C without shaking. After this time the culture media was aseptically aspirated, and the wells rinsed twice with PBS to remove non-adherent cells. Fresh PBS (100 µL) was then added to the wells, and mixed by vigorous pipetting, to dislodge the biofilm matrix from the surface of the wells. These samples were serially diluted, plated on TSA, with cells enumerated after overnight incubation at 37 °C. Each of the above analyses was performed with 3 biological replicates, each of which also had 3 technical replicates. By comparing CFU/mL against control, no-exposed cultures, we were able to obtain a quantitative assessment of the impact of cytosporones on S. aureus biofilms.

[4] = tested on: A549 cells; experiment: A549 cytotoxicity assay (CellTiter 96 Aqueous One); assay type: cell-based, human; conditions: 72 h incubation
Protocol: Cell line A549 (adenocarcinomic human alveolar epithelial cells) was cultured in F-12K Nutrient Mixture (Kaighn’s Modification) media containing L-glutamine, supplemented with 10% fetal bovine serum and 1% penicillin-streptomycin. For the assay, the A549 cells were diluted to 1.33 × 10^5 cells/mL in DMEM F12 media with L-glutamine, without HEPES or phenol red, and supplemented with 2% fetal bovine serum and 1% penicillin-streptomycin. The A549 cells were dispensed into 96 well plates at a volume of 90 µL/well giving a final concentration of 12,000 cells per well. Plates were incubated for 24 h at 37 °C and 5% CO2. After 24 h, 10 µL of the test compounds at concentrations of 0.4, 1.2, 3.7, 11, 33.3 and 100 µg/mL were added to the 96 well plates containing A549 cells followed by 72 h of incubation at 37 °C and 5% CO2. A Beckman-Coulter Biomek NX 3000 was used to dispense cells and dispense test compounds to the 96 well plates. Positive (bronopol) and negative (blank DMSO) controls were included on each assay plate. After the incubation period, cell proliferation was assessed using Promega’s CellTiter 96 Aqueous One Solution Cell Proliferation Assay reagent. Into each well 20 µL of reagent was added followed by incubation for 3 h at 37 °C and 5% CO2. A Biotek plate reader was used to read absorbance at 490 nm and IC50 values were determined for each test compound.

[5] = tested on: Plasmodium falciparum; experiment: Malaria assay (luciferase-reporter Plasmodium falciparum); assay type: cell-based; conditions: for activity toward Plasmodium falciparum: levels tested up to 10 µg/mL
Protocol: Mangrove endophytes isolated as described above were subject to small-scale cultivation on Sabouraud dextrose agar (SDA), freeze dried, then extracted with methanol. Extracts at a concentration of 30 mg/mL were screened in a luciferase-reporter Plasmodium falciparum assay.
Malaria screening was done as previously reported.

[6] = tested on: methicillin-sensitive S. aureus (MSSA); experiment: Microtiter MIC determination against MSSA; assay type: cell-based; conditions: Staphylococcus aureus, methicillin-sensitive S. aureus strains
Protocol: as §2

[7] = MRSA USA100, overnight 37 °C, visual turbidity, read-out: MRSA MIC

Row | Compound | MIC [1, 7] [µM] | fold reduction in bacterial viability at MIC [2] [fold] | bacterial killing at twice the MIC ([2]; MRSA USA100, at twice the MIC) | MBC [2] [µM] | MRSA MBEC90 [3] [µM] | fold reduction in biofilm (MBEC assay) at MIC [3] [fold] | fold reduction in biofilm formation at twice the MIC ([3]; at twice the MIC) [fold] | pIC50 ([4]; Homo sapiens) | IC90 ([4]; Homo sapiens, A549, 72 h) [µM] | activity toward Plasmodium falciparum [5] | activity against MRSA [1] | IC90 ([4]; listed as Cytosporone E (3)) [µM] | IC90 ([5]; Plasmodium falciparum, read-out: IC90 toward Plasmodium falciparum) [µM] | MIC [6] [µM] | MIC ([1]; read-out: MIC of positive control) [µg/mL]
1 | CCCCCCCC(=O)c1c(O)cc(O)cc1CC(=O)OCC [Cytosporone B, cytosporone B] | 78 | 4.2 | complete killing of the bacteria | 93 (≈ 30 µg/mL) | 110 | 2 | 168 | 3.77 | 190 | inactive |  |  |  |  | 
2 | CCCCCCCC1OC(=O)Cc2cc(O)cc(O)c21 (stereo not shown) [Cytosporone C, cytosporone C] | > 358 |  |  |  |  |  |  | 3.16 | 840 | inactive | inactive |  |  |  | 
3 | CCCCCCCC1OC(=O)c2cc(O)c(O)c(O)c21 (stereo not shown) [Cytosporone E, cytosporone E] | 72 | > 5000 |  | 45 (≈ 12.6 µg/mL) | 39 | 183 |  | 3.55 | 437 |  |  | 440 | 13 | 72 (≈ 20.2 µg/mL) | 
4 | CCCCCCCC(=O)c1c(O)cc(O)cc1CC(=O)OCC(O)CO (stereo not shown) [Cytosporone R, cytosporone R] | 503 |  |  |  |  |  |  |  |  |  | inactive |  |  |  | 
5 | CN[C@H](CC(C)C)C(=O)N[C@H]1C(=O)N[C@@H](CC(N)=O)C(=O)N[C@H]2C(=O)N[C@H]3C(=O)N[C@H](C(=O)N[C@H](C(=O)O)c4cc(O)cc(O)c4-c4cc3ccc4O)[C@H](O)c3ccc(c(Cl)c3)Oc3cc2cc(c3O[C@@H]2O[C@H](CO)[C@@H](O)[C@H](O)[C@H]2O[C@H]2C[C@](C)(N)[C@H](O)[C@H](C)O2)Oc2ccc(cc2Cl)[C@H]1O [vancomycin, reference compound] |  |  |  |  |  |  |  |  |  |  |  |  |  |  | 1
